Laboratory results taken from patent US7994329B2, “Growth hormone secretagogue receptor type 1A agonists” (Helsinn Therapeutics (U.S.), Inc., priority 2000, dated 2011).
Where two headings read alike, the source gives them in different places. No end group written: not given here.

Tests used:
[1] = system: rat pituitary cells; assay: GH secretion from rat pituitary cells; format: cell-based
[2] = system: GH release; assay: GH release in anaesthetized rats (plasma rat GH); format: in vivo
Experimental: Blood samples were obtained from anaesthetized animals before dosing, and either 10 min after dosing or by frequent blood sampling through a catheter up until 45 min after dosing. The plasma was analyzed for rat GH.
Non-deprived male Wistar rats (n=6-10) were used for the study, dosed with vehicle or with ghrelin at 10 μg/rat icy dissolved in 5 μl saline. […] GH release was measured in Halothane-anaesthetized animals from which blood samples were obtained, before dosing and 10 min after dosing, via the orbital plexus. The plasma was analyzed for rat GH.

[3] = system: food intake; assay: Food intake in non-deprived male Wistar rats (feeding boxes); format: in vivo, rat; conditions: 3 hours after injection
Experimental: Food intake was measured in feeding boxes with standard chow and water placed on balances connected to a computer. Changes in weight of chow and water were continuously registered. Food and water intake were measured for 3 hours after drug injection during early daytime, when food intake is normally at a very low level.
The effect on feeding was tested after icy injections in non-deprived male Wistar rats. The compounds were dissolved in 5 μl saline and injected in the following doses: 10.0 μg per rat (NNC 26-1291) and 30.0 μg per rat (NN703 and NNC 26-1187).
Food intake was measured in feeding boxes, where standard chow and water were placed on balances and changes in weight continuously registered. Food and water intake was measured for 3 hours after drug injection in the beginning of the light part of the diurnal cycle, when food intake is normally at a very low level. […] For comparison, food intake in control animals is normally about 1 gram, and icy administration of 10 μg porcine neuropeptide Y (NPY), which has a strong effect on food intake, increases food consumption to about 8 grams in this model.
Non-deprived male Wistar rats (n=6-10) were used for the study, dosed with vehicle or with ghrelin at 10 μg/rat icy dissolved in 5 μl saline. Food intake was measured in conscious animals, using feeding boxes. Food and water intake were measured for 3 hours after drug injection during early daytime, when food intake is normally at a very low level. GH release was measured in Halothane-anaesthetized animals from which blood samples were obtained, before dosing and 10 min after dosing, via the orbital plexus. The plasma was analyzed for rat GH.

[4] = biological target: T1, GHS-R 1A (Homo sapiens, UniProt Q92847); assay: Receptor binding assay, membranes of BHK/GHS-R 1A cells
T1 construct: expressed in transfected cells; host or cells: BHK cells, stably transfected
Experimental: Briefly, crude membranes from stably transfected BHK/GHS-R 1A cells were suspended at 0.5 mg protein/ml in homogenization buffer (25 mM Tris-base, 2.5 mM EDTA, 10 mM MgCl2 and 30 μg/ml bacitracin). […] The filters were subsequently washed in 0.9% NaCl and counted using an Optiphase™ ‘HiSafe 3’ counter (Wallac, Turku, Finland).
Specific binding was determined as the difference between total binding and non-specific binding (binding in the presence of 10 μM unlabelled ligand). Binding curves were generated using either the non-linear regression or hyperbolic fit feature of the GraphPad™ Prism software package (GraphPad, San Diego, Calif., U.S.A.).

[5] = system: GH release; conditions: cited from earlier work
[6] = read-out: Binding affinity to the GHS-R 1A (Ki)

T1 sequence (Q92847 whole entry): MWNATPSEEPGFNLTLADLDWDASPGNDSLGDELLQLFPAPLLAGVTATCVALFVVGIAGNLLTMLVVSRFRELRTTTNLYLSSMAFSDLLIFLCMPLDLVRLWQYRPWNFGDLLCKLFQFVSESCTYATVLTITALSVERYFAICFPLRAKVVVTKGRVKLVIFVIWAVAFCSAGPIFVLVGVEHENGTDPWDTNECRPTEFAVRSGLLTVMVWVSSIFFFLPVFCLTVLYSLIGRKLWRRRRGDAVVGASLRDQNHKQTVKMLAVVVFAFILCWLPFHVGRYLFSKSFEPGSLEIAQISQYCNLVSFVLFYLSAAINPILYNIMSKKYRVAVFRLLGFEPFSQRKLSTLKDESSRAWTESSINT

Compound: Nc1ncnc2c1ncn2[C@@H]1O[C@H](CO)[C@@H](O)[C@H]1O [Adenosine, adenosine]
- Stimulation of GH secretion from rat pituitary cells [1]: unable to stimulate GH secretion
- GH release after intravenous (iv) administration ([2]; adenosine 1 mg/kg iv, also 10 mg/kg iv in pentobarbital anaesthetized female SD rats): did not stimulate GH release
- GH release after intracerebroventricular (icy) administration ([2]; adenosine 10 and 100 μg/rat icy, Halothane anaesthetized male Wistar rats): did not stimulate GH release
- Effect on food intake vs vehicle ([3]; 1 μg/rat icy): no effect
- Effect on food intake vs vehicle ([3]; 10 μg/rat icy): food intake was significantly increased

Compound: CNC(=O)[C@@H](Cc1ccccc1)N(C)C(=O)[C@@H](Cc1ccc2ccccc2c1)N(C)C(=O)/C=C/CC(C)(C)N [NN703]
- Ki [4, 6]: 112 ± 29 nM
- Food intake ([3]; 30.0 μg per rat icy): about 3 grams

Compound: CN(CCc1ccccn1)C(=O)[C@@H](Cc1ccccc1)N(C)C(=O)[C@@H](Cc1ccc2ccccc2c1)N(C)C(=O)/C=C/CC(C)(C)N [NNC 26-1187]
- Ki [4, 6]: 22.2 ± 7 nM

Compound: CN(C)N(C)C(=O)C1(Cc2ccccc2)CCCN(C(=O)[C@@H](Cc2c[nH]c3ccccc23)NC(=O)C(C)(C)N)C1 (stereo partly drawn) [NNC 26-1291]
- Ki [4]: 0.4 ± 0.06 nM

Compound: ghrelin (GSSFLSPEHQRVQQRKESKKPPAKLQPR; ends and bridges not checked; UniProt Q9UBU3 24-51, looked up) [peptide described by Kojima in Nature (1999), vol; 402, 656-660, reference compound]
- GH release after icy administration ([2]; ghrelin 10 μg/rat icy, Halothane-anaesthetized male Wistar rats, 10 min after dosing): did not stimulate GH release
- Effect on food intake vs vehicle ([3]; 10 μg/rat icy): significant effect on feeding
- GH release after iv administration [5]: causes stimulation of GH release
